Assay [1] deals with S. aureus ATCC 29213. The assay can be described thus: In vitro antibacterial evaluation, MIC by agar dilution, S. aureus ATCC 29213. Format: cell-based. The settings on record: Staphylococcus aureus, ATCC29213. The gist of the method: (§1)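 Log-phase isolates were spot-inoculated at about 10^4 cfu per spot onto Mueller-Hinton agar plates containing twofold compound dilutions (highest working concentration 128 μg/mL, lowest ≤0.25 μg/mL, duplicates). After 16-20 h at 35-36 °C, the lowest growth-inhibiting level was taken as MIC, per NCCLS agar dilution.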
On the technique in general: In agar dilution, organisms are placed on agar that contains the substance at set levels.

Assay [2] relates to S. epidermidis ATCC 31432. Kind of assay: In vitro antibacterial evaluation, MIC by agar dilution, S. epidermidis ATCC 31432. Format: cell-based. The settings on record: Staphylococcus epidermidis, ATCC31432. The method in brief: as §1
Assay [3] concerns S. aureus 76 (Meth^R)(lac^+). The assay can be described thus: In vitro antibacterial evaluation, MIC by agar dilution, S. aureus 76. Format: cell-based. The conditions noted are these: Staphylococcus aureus, read-out: MIC. The gist of the method: as §1
In assay [4] the test system is S. aureus Col8A (Meth^S)(lac^-). Kind of assay: In vitro antibacterial evaluation, MIC by agar dilution, S. aureus Col8A. Format: cell-based. The conditions noted are these: Staphylococcus aureus. The gist of the method:
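Log-phase isolates were spot-inoculated at about 10^4 cfu onto Mueller-Hinton agar carrying duplicate two-fold compound levels, 128 μg/mL to ≤0.25 μg/mL, following NCCLS (1991). Plates were read after 16-20 h at 35°-36° C. The lowest growth-inhibiting concentration gave the MIC (μg/ml).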

The subject of assay [5] is S. haemolyticus (Meth^R). The assay can be described thus: In vitro antibacterial evaluation, MIC by agar dilution, S. haemolyticus. The conditions noted are these: Staphylococcus haemolyticus, read-out: MIC. Format: cell-based. The method in brief: as §1
In assay [6] the test system is E. faecium ATCC 35667. Kind of assay: In vitro antibacterial evaluation, MIC by agar dilution, E. faecium ATCC 35667. The settings on record: Enterococcus faecium, ATCC35667, read-out: MIC. Format: cell-based. The gist of the method:
as §1

For assay [7], the system named is E. coli ATCC 25922. The assay can be described thus: In vitro antibacterial evaluation, MIC by agar dilution, E. coli ATCC 25922. Format: cell-based. The settings on record: Escherichia coli, ATCC25922, read-out: MIC. The method in brief: as §1
Assay [8] deals with methicillinsusceptible S. aureus strain ATCC 13709. The assay can be described thus: In vivo antibacterial evaluation, murine model for lethal bacteremic peritonitis. Further details: species or system S. aureus in female Swiss-Webster mice. The conditions noted are these: Staphylococcus aureus, ATCC13709, sc, 72 h, two equal SC doses at challenge and 2 hours later, mice, probit, read-out: ED50. The method in brief:
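Female Swiss-Webster mice received IP an LD100 bacterial titer in 7% hog gastric mucin, then two equal subcutaneous doses (at challenge and 2 h later) of two-fold increments of drug, range 0.01–512 mg/kg. Survival scored at 72 h; PD50 (total mg/kg) by probit, groups of 10.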

For assay [9] the test system is unchanged. Kind of assay: Challenge strain MIC. Format: cell-based. The settings on record: Staphylococcus aureus, ATCC13709, S. aureus ATCC 13709; read-out: Challenge str MIC. On the procedure: The compounds of the invention were evaluated against several β-lactamresistant bacteria strains by determining the minimum inhibitory concentration (MIC, μg/ml) of each compound with respect to each strain. The MIC, the lowest concentration of antibiotic which inhibits growth of the test organism, was determined by the agar dilution method.
To determine the MIC for bacterial isolates, the test compound was incorporated in a series of two-fold dilutions into liquified Mueller-Hinton agar. Upon solidification, a number of different bacterial strains were spot inoculated with a replicating device onto the agar surface. […] The procedures used in these studies have been standardized by the National Committee for Clinical Laboratory Standards (NCCLS), as per the NCCLS publication entitled METHODS FOR DILUTION ANTIMICROBIAL SUSCEPTIBILITY TESTS (1991), which is incorporated herein by reference.
Aliquots of antimicrobial agents were prepared in phosphate buffered saline (PBS) at pH 7.2. Tween 20 or DMSO was used as a solubilizing vehicle as needed. Standard methods of vortexing, sonicating and gentle heat were used to facilitate solubilizing the test agent. Typically, the concentration of the stock solution was 10× that of the highest drug concentration tested. A 1.28 mg/mL stock solution was used with a subsequent highest working concentration of 128 μg/mL. Serial two-fold dilutions were done through ≤0.25 μg/mL. Each drug level was tested in duplicate. Two-fold drug dilutions were done in sterile 50 mL tubes with a final drug volume of 5 mL. Upon the addition of 45 mL of molten agar, a 10-fold dilution resulted. Two, 25 mL. plates were then poured into 15×150 mm square Petri plates with grids and allowed to harden.
A control plate with a reference drug, either cefotaxime, vancomycin or imipenem, was used as the positive growth control. Stock concentrations of reference antibiotics were prepared and frozen at -80° C. Upon preparation, the control plates were sealed and stored in the refrigerator for up to 1 week prior to use; however, imipenem control plates had to be prepared just prior to use. All test plates were used within 24 hours of preparation.
Satisfactory results were obtained where the inoculum contained about 10^4 colony forming units (cfu) ±0.5 logs. Starting with pure cultures of the test isolates on agar plates, a few isolated colonies were transferred to a tube of nutrient broth and allowed to grow 4-6 hours at 35°-36° C. to reach log-phase growth. Dropwise addition of the broth culture to PBS was done to match a 0.5 McFarland turbidity standard equal to 10^8 cfu/mL. This was further diluted ten-fold in PBS to reach a working inoculum concentration of 10^7 cfu/mL. When 1 μL of the working inoculum was applied to the agar surface a concentration of about 10^4 cfu per spot was obtained.
Disposable sterile 1 μL loops were used to inoculate test plates, with each isolate in a designated grid on the agar plate. An alternate method of inoculation involved the use of a replica plater, a device with 48 steel pins allowing the simultaneous inoculation of multiple isolates. After the spots had dried, the plates were incubated at 35°-36° C. for 16-20 hours. Endpoints were assessed as the minimum inhibitory concentration (MIC) of antimicrobial agent.
data reported for challenge with methicillinsusceptible S. aureus strain

Assay [10] has as its system S. aureus ATCC 25923. The assay can be described thus: In vitro antibacterial evaluation, MIC by agar dilution, S. aureus ATCC 25923. Format: cell-based. The settings on record: Staphylococcus aureus, ATCC25923. The method in brief:
as §1

The test system of assay [11] is E. faecalis ATCC 29212. The assay can be described thus: In vitro antibacterial evaluation, MIC by agar dilution, E. faecalis ATCC 29212. Format: cell-based. The settings on record: Enterococcus faecalis, ATCC29212; E. faecalis ATCC 29212; read-out: MIC. The gist of the method: as §1
The subject of assay [12] is P. aeruginosa ATCC 27853. The assay can be described thus: In vitro antibacterial evaluation, MIC by agar dilution, P. aeruginosa ATCC 27853. Format: cell-based. The settings on record: Pseudomonas aeruginosa, ATCC27853, read-out: MIC. The method in brief:
as §1

Values after ≈ are worked out from the molar mass of the structure shown.

As usually defined, the MIC is the least concentration at which growth counts as inhibited. One may read the ED50 as the dose at which the effect has come halfway, by size or by number of responders. For the molecule `N#CCC(=O)N[C@@H]1C(=O)N2C(C(=O)O)=C(Sc3ccccc3I)CS[C@H]12` [Cmpd 17, (7R)-7-[(Cyanoacetyl)amino]-3-(o-iodophenylthio)-3-cephem-4-carboxylic acid], the MIC in assay [1] was under 0.25 µg/mL; in assay [2], under 0.25 µg/mL; in assay [3] it was 4 µg/mL (≈ 7.98 µM); in assay [4] it was under 0.25 µg/mL; in assay [5], 8 µg/mL (≈ 16 µM); in assay [6] it was 1 µg/mL (≈ 1.99 µM). Further, the values for the MIC in assay [7] and in [9] were over 64 µg/mL and 0.125 µg/mL (≈ 0.249 µM), respectively. Besides, in [8], the 50% effective dose (ED50) was 3.41 mg/kg.
`N#Cc1ccccc1SC1=C(C(=O)O)N2C(=O)[C@@H](NC(=O)Cc3ccccc3)[C@H]2SC1` [Cmpd 41, (7R)-7-[(Phenylacetyl)amino]-3-(2-cyanophenylthio)-3-cephem-4-carboxylic acid]: the minimum inhibitory concentration (MIC) is under 0.25 µg/mL in [10]; under 0.25 µg/mL in assay [2]; 4 µg/mL (≈ 8.86 µM) in assay [3]; under 0.25 µg/mL in assay [4]; 16 µg/mL (≈ 35.4 µM) in assay [5]; 2 µg/mL (≈ 4.43 µM) in assay [6]. The minimal inhibitory concentration (MIC) in assay [11] was 4 µg/mL (≈ 8.86 µM); in [7], over 32 µg/mL; in assay [12] it was over 32 µg/mL; in [9], 0.06 µg/mL (≈ 0.133 µM). In addition, in assay [8], the ED50 turned out to be 1.13 mg/kg.
As for `O=C(Cc1ccccc1)N[C@@H]1C(=O)N2C(C(=O)O)=C(Sc3cccnc3-c3ccccc3)CS[C@H]12` [Cmpd 81, (7R)-7-[(Phenylacetyl)amino]-3-(2-phenylpyridin-3-ylthio)-3-cephem-4-carboxylic acid], the MIC in assay [10] is under 0.25 µg/mL; in assay [2], under 0.25 µg/mL; in [3], 4 µg/mL (≈ 7.94 µM); in assay [4], under 0.25 µg/mL; in assay [5], 16 µg/mL (≈ 31.8 µM); in assay [6], 1 µg/mL (≈ 1.99 µM). Moreover, the MIC in assay [11] was 2 µg/mL (≈ 3.97 µM); in assay [7], over 32 µg/mL; in [12] it was over 32 µg/mL; in [9], 0.125 µg/mL (≈ 0.248 µM). The ED50 in assay [8] was found to be 8.46 mg/kg.
For `O=C(Cc1ccccc1)N[C@@H]1C(=O)N2C(C(=O)O)=C(Sc3ccnn3-c3ccccc3)CS[C@H]12` [Cmpd 87, (7R)-7-[(Phenylacetyl)amino]-3-(1-N-phenylpyrazol-5-ylthio)-3-cephem-4-carboxylic acid], the MIC was under 0.25 µg/mL in assay [10]; under 0.25 µg/mL in [2]; 4 µg/mL (≈ 8.12 µM) in assay [3]; under 0.25 µg/mL in assay [4]; 16 µg/mL (≈ 32.5 µM) in assay [5]; 1 to 2 µg/mL (≈ 2.03 to 4.06 µM) in assay [6]. Besides, the MIC was 2 µg/mL (≈ 4.06 µM) in [11], over 32 µg/mL in assay [7], over 32 µg/mL in [12] and 0.06 µg/mL (≈ 0.122 µM) in assay [9]. Besides, the ED50 in [8] stood at 1.89 mg/kg.

Values taken from US5607926A, “Cephalosporin antibiotics” (Microcide Pharmaceuticals, Inc., priority 1995, dated 1997).
